Measured values reported in patent US20240041042A1, “1-(PYRIDYL)-5-AZINYLPYRAZOLE DERIVATIVES, AND THEIR USE FOR CONTROL OF UNDESIRED PLANT GROWTH” (Bayer Aktiengesellschaft, priority 2020, published 2024).
Read-outs that look alike come from different tables or passages of the source.

How the values were obtained:
Format in all cases: in vivo
[1] = test system: Triticum aestivum (TRZAS); details: crop plant compatibility, effect vs untreated controls
Summary of the method: (§1)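 Visual rating (% effect vs. untreated plants; 100% = plant death) made about 3 weeks after treatment. Plants had been sprayed at one-leaf stage, 2–3 weeks post-sowing, with aqueous WP/EC preparations containing 0.5% additive, 600 l/ha water volume; a, b, c mark dose levels.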

Oryza sativa (ORYSA) [2] = details: crop plant compatibility
Summary of the method: as §1

Zea mays (ZEAMX) [3] = details: for Post-emergence action against ZEAMX in % (crop plant compatibility): 20 g/ha, effect in comparison to untreated controls; for Post-emergence action against ZEAMX in %: crop plant compatibility, effect vs untreated controls
Summary of the method: as §1

[4] = test system: Verconica persica (VERPE); experiment: Pre-emergence herbicidal action against VERPE; details: dosage 320 g/ha
Summary of the method: (§2)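 Pre-emergence soil-surface spray of compound, formulated as wettable powder or emulsion concentrate, in aqueous suspension or emulsion with 0.5% additive (600 l/ha; rate 320 g/ha or less). Activity rated visually after roughly 3 weeks in the greenhouse as a percentage of untreated controls, 0% meaning no difference.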

Glycine max (GLXMA) [5] = experiment: Post-emergence crop plant compatibility, GLXMA; details: for Post-emergence action against GLXMA in %: effect in comparison to untreated controls
Summary of the method: as §1

Brassica napus (BRSNW) [6] = experiment: Post-emergence crop plant compatibility, BRSNW; details: effect in comparison to untreated controls
Method: Seeds of monocotyledonous and dicotyledonous weeds and crop plants are placed in sandy loam in plastic or organic planting pots, covered with soil and cultivated in a greenhouse under controlled growth conditions. 2 to 3 weeks after sowing, the test plants are treated at the one-leaf stage. The compounds of the invention, formulated in the form of wettable powders (WP) or as emulsion concentrates (EC), are then sprayed onto the green parts of the plants as aqueous suspension or emulsion with addition of 0.5% additive at a water application rate of 600 l/ha (converted). After the test plants have been kept in the greenhouse under optimum growth conditions for about 3 weeks, the activity of the preparations is rated visually in comparison to untreated controls. For example, 100% activity=the plants have died, 0% activity=like control plants.
The observed effects on selected crop plants are reported here in comparison to the untreated controls (values in %). The appendices “a”, “b” and “c” give differentiation by dosage used with otherwise the same crop plants tested.

[7] = test system: Triticum aestivum (TRZAS); details: pre-emergence, crop plant compatibility, in comparison to untreated controls
Summary of the method: (§3)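 Scoring: visual, % of untreated control, about 3 weeks after a pre-emergence application to the soil surface. Application used WP or EC formulations diluted in water with 0.5% additive at 600 l/ha; dosage levels are marked by suffixes a, b and c.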

Brassica napus (BRSNW) [8] = details: crop plant compatibility, in comparison to untreated controls
Summary of the method: as §3

Oryza sativa (ORYSA) [9] = details: pre-emergence, crop plant compatibility, in comparison to untreated controls
Summary of the method: as §3

Zea mays (ZEAMX) [10] = details: pre-emergence, crop plant compatibility, in comparison to untreated controls
Summary of the method: as §3

Glycine max (GLXMA) [11] = details: pre-emergence, crop plant compatibility, in comparison to untreated controls
Summary of the method: as §3

Viola tricolor (VIOTR) = experiment: Pre-emergence herbicidal action against VIOTR; details: 320 g/ha, Viola tricolor
Summary of the method: as §2

[12] = 20 g/ha, effect vs untreated controls
[13] = 80 g/ha, effect in comparison to untreated controls

SMILES | Post-emergence action against TRZAS in % ([1]; 20 g/ha) | Post-emergence action against TRZAS in % ([1]; 80 g/ha) | Post-emergence action against ORYSA in % (Oryza sativa (ORYSA) [2]; [12]) | Post-emergence action against ORYSA in % (Oryza sativa (ORYSA) [2]; [13]) | Post-emergence action against ZEAMX in % (crop plant compatibility) (Zea mays (ZEAMX) [3]) | Post-emergence action against ZEAMX in % (Zea mays (ZEAMX) [3]; 80 g/ha) | Post-emergence action against GLXMA in % (Glycine max (GLXMA) [5]; 20 g/ha) | Post-emergence action against GLXMA in % (Glycine max (GLXMA) [5]; 80 g/ha) | Post-emergence action against BRSNW in % (Brassica napus (BRSNW) [6]; 20 g/ha) | Post-emergence action against BRSNW in % (Brassica napus (BRSNW) [6]; 80 g/ha) | Pre-emergence action against TRZAS in % ([7]; 80 g/ha) | Pre-emergence action against TRZAS in % ([7]; 320 g/ha) | Pre-emergence action against BRSNW in % (Brassica napus (BRSNW) [8]; 80 g/ha) | Pre-emergence action against BRSNW in % (Brassica napus (BRSNW) [8]; 320 g/ha) | Pre-emergence action against ORYSA in % (Oryza sativa (ORYSA) [9]; 80 g/ha) | Pre-emergence action against ORYSA in % (Oryza sativa (ORYSA) [9]; 320 g/ha) | Pre-emergence action against ZEAMX in % (Zea mays (ZEAMX) [10]; 80 g/ha) | Pre-emergence action against ZEAMX in % (Zea mays (ZEAMX) [10]; 320 g/ha) | Pre-emergence action against GLXMA in % (Glycine max (GLXMA) [11]; 320 g/ha) | Pre-emergence action against GLXMA in % (Glycine max (GLXMA) [11]; 80 g/ha) | also measured
CCOC(=O)C1CCN(C(=O)COc2nn(-c3ccccn3)c(-c3ccc(F)nc3)c2Br)CC1 [Example I-112] | 0% | 0% | 0% | 0% | 0% | 10% | 0% | 10% | 0% | 10% | 0% | 10% | 10% | 10% | 0% | 10% | 0% | 10% | 20% | – | Pre-emergence action against VERPE in % [4]: 80%
COC(=O)C1CCCN(C(=O)COc2nn(-c3ccccn3)c(-c3ccc(F)nc3)c2Br)C1 (centres unmarked) [Example I-108] | 0% | 20% | 0% | 10% | 0% | 10% | 0% | 10% | 10% | – | 0% | 10% | 10% | 20% | 0% | 10% | 10% | 10% | 0% | 0% | –
O=C(CSc1nn(-c2ccccn2)c(-c2cncc(F)c2)c1Br)NS(=O)(=O)c1ccccc1 [Example I-200] | – | 0% | – | 0% | – | 0% | – | 0% | – | 10% | 0% | 10% | 0% | 0% | 20% | 20% | 0% | 0% | 20% | 20% | Post-emergence action against TRZAS in % ([1]; 320 g/ha): 0%; Post-emergence action against ORYSA in % (Oryza sativa (ORYSA) [2]; 320 g/ha, effect in comparison to untreated controls): 0%; Post-emergence action against ZEAMX in % (Zea mays (ZEAMX) [3]; 320 g/ha): 0%; Pre-emergence action against VIOTR in % (Viola tricolor (VIOTR)): 100%; Post-emergence action against GLXMA (Glycine max (GLXMA) [5]; 320 g/ha, effect vs untreated controls): 0%; Post-emergence action against BRSNW in % (Brassica napus (BRSNW) [6]; 320 g/ha): 20%
CCOC(=O)COc1nn(-c2ncccc2F)c(-c2ccc(F)nc2)c1I [Example I-55] | 0% | 0% | 0% | 0% | 0% | 0% | 0% | 0% | 0% | 0% | 0% | 0% | 0% | 0% | 0% | 0% | 0% | 0% | 0% | 0% | –
